Results from publication PMC8165160, “Substrate Specificities and Inhibition Pattern of the Solute Carrier Family 10 Members NTCP, ASBT and SOAT” (Frontiers in Molecular Biosciences, 2021).
Where two headings read alike, the source gives them in different places.

Assays:
[1] = target: T1, NTCP (Homo sapiens, UniProt Q14973); experiment: Substrate screening: sodium-dependent uptake of radiolabeled compounds in NTCP-HEK293 cells; assay type: cell-based; design: The full-length open reading frames of NTCP, ASBT, and SOAT were cloned; expressed in transfected cells; host or cells: Flp-In T-REX HEK293 (NTCP-HEK293), tetracycline-induced; details: NTCP-HEK293, vs sodium-free control
T1 sequence (Q14973 1-349): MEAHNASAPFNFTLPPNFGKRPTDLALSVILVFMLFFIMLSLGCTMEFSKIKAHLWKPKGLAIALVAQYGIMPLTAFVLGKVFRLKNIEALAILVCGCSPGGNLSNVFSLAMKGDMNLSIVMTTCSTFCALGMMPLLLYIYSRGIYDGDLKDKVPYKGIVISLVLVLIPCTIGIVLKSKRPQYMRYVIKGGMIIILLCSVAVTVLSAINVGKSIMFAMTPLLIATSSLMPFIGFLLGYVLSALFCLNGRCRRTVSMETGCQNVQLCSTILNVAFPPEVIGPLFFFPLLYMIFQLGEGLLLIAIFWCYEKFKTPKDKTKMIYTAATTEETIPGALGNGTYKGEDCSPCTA
Method: (§1) Stably SLC10 transporter transfected NTCP-HEK293, ASBT-HEK293, SOAT-HEK293 cells and the HEK293-FlpIn maternal cell line were seeded on 24-well plates (if not stated otherwise for individual assays). Well plates were coated with poly-D-lysine prior to seeding of 125,000 cells per well. Cells were grown with 1 ml of standard medium per well with or without tetracycline ([…]) for 72 h to induce carrier expression before respective assays were started. HEK293-FlpIn cells were cultivated with standard medium and served as control.
(§2) Uptake experiments were initiated by replacing the preincubation buffer by 500 μL transport buffer containing the radiolabeled test compound and were performed at 37°C. Transport was terminated by removing the transport buffer and washing five-times with ice-cold PBS. Cell monolayers were lysed in 1 N NaOH with 0.1% SDS and the cell-associated radioactivity was determined by liquid scintillation counting.
(§3) FIGURE 1 Comparative substrate screening for bile acids and sulfated steroids in NTCP-, ASBT-, and SOAT-HEK293 cells. Transport assays were performed with the indicated substrates in NTCP-HEK293, ABST-HEK293, SOAT-HEK293, and HEK293-FlpIn cells. Cells were washed and equilibrated with Na^+-containing transport buffer (filled bars) or with Na^+-free transport buffer (open bars) at 37°C. For uptake, cells were incubated with radiolabeled steroid compounds at a final concentration of 200 nM in Na^+-containing or Na^+-free transport buffer for 10 min. Radiolabeled bile acids were used at 1 µM concentrations and transport was analyzed over 30 min. HEK293-FlpIn cells served as additional controls. After the indicated time intervals, cells were washed with ice-cold PBS, lysed and subjected to liquid scintillation counting. […] 3-OH, trihydroxylated BAs; 2-OH, dihydroxylated BAs; 1-OH, monohydroxylated BAs.

[2] = target: T2, ASBT (Homo sapiens, UniProt Q12908); experiment: Substrate screening: sodium-dependent uptake of radiolabeled compounds in ASBT-HEK293 cells; assay type: cell-based; details: radiolabeled bile acids 1 µM, 30 min, ASBT-HEK293, vs sodium-free control
T2 construct: The full-length open reading frames of NTCP, ASBT, and SOAT were cloned; expressed in transfected cells; host or cells: Flp-In T-REX HEK293 (ASBT-HEK293), tetracycline-induced
T2 sequence (Q12908 1-348): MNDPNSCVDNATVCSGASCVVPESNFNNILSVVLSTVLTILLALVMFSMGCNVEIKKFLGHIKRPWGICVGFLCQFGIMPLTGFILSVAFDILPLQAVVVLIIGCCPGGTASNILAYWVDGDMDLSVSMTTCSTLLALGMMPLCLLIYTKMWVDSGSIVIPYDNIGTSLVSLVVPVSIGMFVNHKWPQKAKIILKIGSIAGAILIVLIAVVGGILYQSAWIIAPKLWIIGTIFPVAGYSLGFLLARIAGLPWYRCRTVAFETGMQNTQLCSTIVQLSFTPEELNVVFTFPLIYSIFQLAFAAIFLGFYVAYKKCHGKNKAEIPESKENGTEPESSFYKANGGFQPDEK
Method: as §1, §2, §3

[3] = target: T1, NTCP; experiment: Transport inhibition in NTCP-HEK293 cells; details: NTCP-HEK293
[4] = radiolabeled bile acids 1 µM, 30 min

Molecule: C[C@H](CCC(=O)O)[C@H]1CC[C@H]2[C@@H]3[C@H](O)C[C@@H]4C[C@H](O)CC[C@]4(C)[C@H]3CC[C@]12C [Chenodeoxycholic acid]
- Transport activity grading NTCP (mean uptake) [1, 4]: + (Mean uptake of bile acids “+” for values below 500)
- Transport activity grading ASBT (mean uptake) [2]: + (Mean uptake of bile acids “+” for values below 500)

Molecule: C[C@H](CCC(=O)O)[C@H]1CC[C@H]2[C@@H]3[C@H](O)C[C@@H]4C[C@H](O)CC[C@]4(C)[C@H]3C[C@H](O)[C@]12C [Cholic acid]
- Transport activity grading NTCP (mean uptake) [1, 4]: ++ (“++” for values between 500 and 1000)
- Transport activity grading ASBT (mean uptake) [2]: + (Mean uptake of bile acids “+” for values below 500)

Molecule: C[C@H](CCC(=O)O)[C@H]1CC[C@H]2[C@@H]3CC[C@@H]4C[C@H](O)CC[C@]4(C)[C@H]3C[C@H](O)[C@]12C [Deoxycholic acid]
- Transport activity grading NTCP (mean uptake) [1, 4]: + (Mean uptake of bile acids “+” for values below 500)
- Transport activity grading ASBT (mean uptake) [2]: + (Mean uptake of bile acids “+” for values below 500)

Molecule: C[C@]12CC[C@@H]3c4ccc(O[C@@H]5O[C@H](C(=O)O)[C@@H](O)[C@H](O)[C@H]5O)cc4CC[C@H]3[C@@H]1CCC2=O [Estrone-3β-D-glucuronide]
- Transport activity grading NTCP (mean uptake) ([1]; radiolabeled steroid compounds 200 nM, 10 min): + (Mean uptake “+” for values below 10)

Molecule: CC(CCC(=O)NCC(=O)O)C1CCC2C3C(O)CC4CC(O)CCC4(C)C3CCC12C (stereo not shown) [Glycochenodeoxycholic acid]
- Transport activity grading NTCP (mean uptake) [1, 4]: +++ (“+++” for values above 1000 pmol/mg protein/30 min)
- Transport activity grading ASBT (mean uptake) [2]: ++ (“++” for values between 500 and 1000)

Molecule: C[C@H](CCC(=O)NCC(=O)O)[C@H]1CC[C@H]2[C@@H]3[C@H](O)C[C@@H]4C[C@H](O)CC[C@]4(C)[C@H]3C[C@H](O)[C@]12C [Glycocholic acid]
- Transport activity grading NTCP (mean uptake) [1, 4]: +++ (“+++” for values above 1000 pmol/mg protein/30 min)
- Transport activity grading ASBT (mean uptake) [2]: ++ (“++” for values between 500 and 1000)

Molecule: CC(CCC(=O)NCC(=O)O)C1CCC2C3CCC4CC(O)CCC4(C)C3CC(O)C12C (stereo not shown) [Glycodeoxycholic acid]
- Transport activity grading NTCP (mean uptake) [1, 4]: +++ (“+++” for values above 1000 pmol/mg protein/30 min)
- Transport activity grading ASBT (mean uptake) [2]: ++ (“++” for values between 500 and 1000)

Molecule: C[C@H](CCC(=O)NCC(=O)O)[C@H]1CC[C@H]2[C@@H]3[C@@H](O)C[C@@H]4C[C@H](O)CC[C@]4(C)[C@H]3CC[C@]12C [Glycoursodeoxycholic acid]
- Transport activity grading NTCP (mean uptake) [1, 4]: +++ (“+++” for values above 1000 pmol/mg protein/30 min)
- Transport activity grading ASBT (mean uptake) [2]: ++ (“++” for values between 500 and 1000)

Molecule: C[C@H](CCC(=O)NCCS(=O)(=O)O)[C@H]1CC[C@H]2[C@@H]3[C@H](O)C[C@@H]4C[C@H](O)CC[C@]4(C)[C@H]3CC[C@]12C [Taurochenodeoxycholic acid]
- Transport activity grading NTCP (mean uptake) [1, 4]: +++ (“+++” for values above 1000 pmol/mg protein/30 min)
- Transport activity grading ASBT (mean uptake) [2]: ++ (“++” for values between 500 and 1000)

Molecule: C[C@H](CCC(=O)NCCS(=O)(=O)O)[C@H]1CC[C@H]2[C@@H]3CC[C@@H]4C[C@H](O)CC[C@]4(C)[C@H]3C[C@H](O)[C@]12C [Taurodeoxycholic acid]
- Transport activity grading NTCP (mean uptake) [1, 4]: +++ (“+++” for values above 1000 pmol/mg protein/30 min)
- Transport activity grading ASBT (mean uptake) [2]: ++ (“++” for values between 500 and 1000)

Molecule: C[C@H](CCC(=O)NCCS(=O)(=O)O)[C@H]1CC[C@H]2[C@@H]3[C@@H](O)C[C@@H]4C[C@H](O)CC[C@]4(C)[C@H]3CC[C@]12C [Tauroursodeoxycholic acid]
- Transport activity grading NTCP (mean uptake) [1, 4]: +++ (“+++” for values above 1000 pmol/mg protein/30 min)
- Transport activity grading ASBT (mean uptake) [2]: ++ (“++” for values between 500 and 1000)

Molecule: C[C@H](CCC(=O)O)[C@H]1CC[C@H]2[C@@H]3[C@@H](O)C[C@@H]4C[C@H](O)CC[C@]4(C)[C@H]3CC[C@]12C [Ursodeoxycholic acid]
- Transport activity grading NTCP (mean uptake) [1, 4]: + (Mean uptake of bile acids “+” for values below 500)

Molecule: myr-preS1: 2–48 N-terminal amino acids of the myristoylated preS1 domain of the HBV/HDV large envelope protein (GQNLSTSNPLGFFPDHQLDPAFRANTANPDWDFNPNKDTWPDANKVG; N-terminal myristoyl on Gly2)
- IC50 ([3]; read-out: IC50 for inhibition of [3H]DHEAS transport via NTCP, 200 nM DHEAS): 167 nM
- IC50 ([3]; read-out: IC50 for inhibition of [3H]TC transport via NTCP, 200 nM TC): 182 nM
- IC50 ([3]; read-out: IC50 for inhibition of [3H]TLC transport via NTCP, 200 nM TLC): 316 nM
